In article PMC5760651, “Peptidomimetic blockade of MYB in acute myeloid leukemia” (Nature Communications, 2018):
Non-standard residues stand in square brackets, D forms with d. Residues, ends and D or L forms follow the SMILES beside them.

Key:
CBP KIX domain = biological target: T1, CBP KIX domain (Mus musculus, UniProt P45481); experiment: Microscale thermophoresis binding of FITC-conjugated peptides to purified recombinant CBP KIX domain; conditions: 50 mM sodium phosphate, 150 mM NaCl, 0.01% NP-40, pH 5.5, room temperature, ± standard error mean of three biological replicates
T1 construct: Bacterial expression pGEX-KIX vector encoding the KIX domain of CBP; GST (N, cleaved yes); made in house; host or cells: E. coli BL21(DE3)
Description: BL21(DE3) cells (Invitrogen) transformed with pGEX-KIX plasmid were induced at 37 °C with isopropyl β-D-1-thiogalactopyranoside for 3 h. Cells were lysed in 50 mM Tris–HCl pH 7.3, 150 mM NaCl, 0.1% Tween-20, 1 mM DTT, 5 mM EDTA, supplemented with protease inhibitors described above and sonicated for ten minutes (15 s on, 15 s off, 40% amplitude) using the Misonix probe sonicator (Qsonica, Newtown, CT). Lysate was cleared by centrifugation for 1 h at 21,800 × g at 4 °C. Cleared lysate was incubated with 4 ml glutathione agarose resin slurry (GoldBio) for 1 h at 4 °C to capture GST-KIX. Resin was washed four times with 50 mM Tris–HCl pH 7.4, 150 mM NaCl. KIX domain was cleaved from GST by incubation of resin-bound GST-KIX with 160 U thrombin (GE Healthcare) overnight at room temperature. Resin was centrifuged at 500 × g for 5 min. […] Cleaved KIX was purified using a linear gradient of 50 mM to 1 M NaCl by cation exchange chromatography using MonoS 5/50 GL column (GE Healthcare). […] Binding of purified recombinant KIX with FITC-conjugated peptides was measured using Monolith NT.115 (NanoTemper Technologies). Assays were conducted in 50 mM sodium phosphate, 150 mM NaCl, 0.01% NP-40, pH 5.5. […] MST measurements were recorded at room temperature for 10 s per capillary using fixed IR-laser power of 80% and LED excitation power of 40–50%.

MOLM-13 cells = experiment: RNA-seq transcriptome profiling; assay type: cell-based, human; conditions: MOLM13 cells, 20 µM, 6 h
Description: Reads were quality and adapter trimmed using “trim_galore” before aligning to human assembly hg19 with STAR v2.5 using the default parameters. Coverage and post-alignment quality were assessed using the Picard tool CollectRNASeqMetrics (http://broadinstitute.github.io/picard/). Read count tables were created using HTSeq v0.6.1. Normalization and expression dynamics were evaluated with DESeq2 using the default parameters.

MV-411 cells [1] = experiment: MYB ChIP-seq; assay type: cell-based, human; conditions: 20 µM, 6 h, 3 biological replicates
Description: ChIP was performed as previously described. Briefly, cells were fixed in 1% formalin in phosphate-buffered saline (PBS) for 10 minutes at room temperature. Glycine (125 mM final concentration) and Tris-HCl pH 8 (100 mM final concentration) were added to the cells and cells were washed twice in ice-cold PBS and resuspended in sodium dodecyl sulfate (SDS) lysis buffer (1% SDS, 10 mM EDTA, 50 mM Tris–HCl, pH 8.1). Lysates were sonicated using the Covaris S220 adaptive focused sonicator to obtain 100–500 bp chromatin fragments (Covaris, Woburn, CA). Lysates containing sheared chromatin fragments were resuspended in 0.01% SDS, 1.1% Triton-X100, 1.2 mM EDTA, 16.7 mM Tris–HCl, pH 8.1,167 mM NaCl. Lysates and antibody-coupled beads were incubated over night at 4 °C. […] Libraries were sequenced on the Illumina HiSeq 2500 instruments, with 30 million 2 × 50 bp paired reads.
For ChIP-seq analysis, reads were quality and adapter trimmed using ‘trim_galore’ before aligning to human genome assembly hg19 with bwa mem using the default parameters. Aligned reads with the same start position and orientation were collapsed to a single read before subsequent analysis. Density profiles were created by extending each read to the average library fragment size and then computing density using the BEDTools suite. Enriched regions were discovered using MACS 2.0 and scored against matched input libraries. […]

[2] = test system: MOLM-13, MV-411, ML-2 and HL-60 cells; experiment: Cell viability of AML cell lines; assay type: cell-based, human; conditions: 6 days, 20 μM TG1, TG2 or TG3, 10 and 20 μM MYBMIM, peptide replacement every 48 h, compared to untreated control
Description: (§1) Cells were resuspended and plated at a concentration of 2 × 10^5 cells in 200 μl in 96-well tissue culture plates. Media with peptides was replaced every 48 h. To assess the number of viable cells, cells were resuspended in PBS and 10 µl of suspension was mixed in a 1:1 ratio with 0.4% Trypan Blue (Thermo Fisher) and counted using a hemacytometer (Hausser Scientific, Horsham, PA, USA). To assess viability using an ATP-based assay, cell viability was assessed using the CellTiter-Glo Luminescent Viability assay, according to the manufacturer’s instructions (Promega). Luminescence was recorded using the Infinite M1000Pro plate reader using integration time of 250 ms (Tecan).

MV-411 and MOLM-13 cells = experiment: qRT-PCR of BCL2 mRNA expression; assay type: cell-based, human; conditions: 20 μM, 6 h
Description: RNA was isolated using Trizol reagent according to the manufacturer’s instructions (Life Technologies). Complementary DNA was synthesized using the SuperScript III First-Strand Synthesis system according to the manufacturer’s instructions (Invitrogen). Quantitative real-time PCR was performed using the KAPA SYBR FAST PCR polymerase with 20 ng template and 200 nM primers, according to the manufacturer’s instructions (Kapa Biosystems, Wilmington, MA, USA). PCR primers are listed in Supplementary Table 4. Ct values were calculated using ROX normalization using the ViiA 7 software (Applied Biosystems).

MV-411 cells [3] = experiment: Growth and survival of MV-411 cells with ectopic BCL2 (MIG-BCL2) or empty MIG vector; assay type: cell-based, human; conditions: 20 μM, p = 0.003
Description: as §1
The MIG-BCL2 vector was packaged using pUMVc and pCMV-VSVG vectors in HEK 293T cells and the FuGENE 6 transfection reagent, according to manufacturer’s instructions (Promega). Virus supernatant was collected at 48 and 72 h post transfection, pooled, filtered and stored at −80 °C. Cells were transduced with virus particles at a multiplicity of infection of 1 by spin inoculation for 90 min at 3500 rpm at 35 °C in the presence of 8 μg/ml hexadimethrine bromide. Two days after transduction, cells were isolated using fluorescence-activated cell sorting (FACSAria III, BD Bioscience, San Jose, CA, USA).

T1 sequence (P45481 586-665 limits assumed): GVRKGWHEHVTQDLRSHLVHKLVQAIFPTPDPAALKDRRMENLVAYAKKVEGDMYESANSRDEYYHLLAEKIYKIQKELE

Kd (CBP KIX domain): 113 ± 36.6 µM
SMILES: CC[C@@H](C)[C@@H](NC(=O)[C@@H](CCCCN)NC(=O)[C@@H](CCC(=O)O)NC(=O)[C@@H](CC(C)C)NC(=O)[C@@H](CCC(=O)O)NC(=O)[C@@H](CC(C)C)NC(=O)[C@@H](CC(C)C)NC(=O)CNC(=O)[C@@H](CCSC)NC(=O)[C@@H](CO)NC(=O)[C@H](NC(=O)[C@@H](CCC(=O)O)NC(=O)[C@@H](CC(N)=O)NC(=O)CNC(=O)[C@@H](CC(C)C)NC(=O)[C@@H](CCCCN)NC(C)=O)[C@H](C)O)C(=O)NCC(=O)N[C@H](CCCCN)C(=O)NCC(=O)NCC(=O)N[C@H](CCCNC(=N)N)C(=O)N[C@H](CCCNC(=N)N)C(=O)N[C@H](CCCNC(=N)N)C(=O)N[C@H](CCC(N)=O)C(=O)N[C@H](CCCNC(=N)N)C(=O)N[C@H](CCCNC(=N)N)C(=O)N[C@H](CCCCN)C(=O)N[C@H](CCCCN)C(=O)N[C@H](CCCNC(=N)N)C(=O)NCC(=O)N[C@H](Cc1ccc(O)cc1)C(N)=O [TG3] (Ac-[dK][dL]G[dN][dE][dT][dS][dM]G[dL][dL][dE][dL][dE][dK][dI]G[dK]GG[dR][dR][dR][dQ][dR][dR][dK][dK][dR]G[dY]-NH2)
Changes in gene expression as compared to mock-treated cells (MOLM-13 cells): no significant changes in gene expression
MYB complexes bound to promoters and enhancers eliminated (MV-411 cells [1]): inactive
Growth of AML cell lines [2]: inactive
BCL2 expression downregulation (MV-411 and MOLM-13 cells): not
Cell growth and survival of mock-treated and MIG empty vector control transduced MV-411 cells (MV-411 cells [3]): inactive
